What was measured:
[1] = Acute Toxicity; settings: mouse, in vivo, iv; ddY mice, single i.v. injection, 14 days observation, Behrens Kaerber's method
Experimental: A test compound was intravenously injected once to five ddY mice as one group. […] LD50 was calculated from the death rate of each group according to the Behrens Kaerber's method.

[2] = system: HeLa S3 cells; test: Growth Inhibition Test on HeLa S3 Cells; type: cell-based; settings: Homo sapiens, 1 hour exposure, then 72 hours incubation at 37° C., Neutral Red staining, read-out: IC50 (concentration which inhibits cell growth by 50%)
Experimental: Growth Inhibition Test on HeLa S3 Cells
HeLa S3 cells were suspended in an MEM medium containing 10% fetal calf serum and 2 mM glutamine at a concentration of 3×10^4 cells/ml, and 0.1 ml of the cell suspension was put into each well of a 96-well microtiter plate.
After culturing at 37° C. overnight in a carbon dioxide gas incubator, 0.05 ml of a test sample appropriately diluted with the medium was added to each well. The cells were further cultured for one hour in the carbon dioxide gas incubator and the culture supernatant was removed. The residue was washed once with a phosphate buffer saline [PBS(-)] and 0.1 ml of a fresh medium was added to each well, and the cells were further incubated at 37° C. for 72 hours in the carbon dioxide gas incubator. After removal of the supernatant, 0.1 ml of culture medium containing 0.02% Neutral Red was added to each well, and the cells were further incubated at 37° C. for one hour in the carbon dioxide gas incubator to stain the cells. After removal of the culture supernatant, each well was washed once with a physiological saline, and the dye was extracted with 0.001N HCl/30% methanol. Absorbance of the extract at 550 nm was measured with a microplate reader. The cell growth inhibition percentage was calculated according to the following formula from the absorbance of the extract of the cells treated with the test compound in various concentrations and that of intact cells. [formula]
From the cell growth inhibition percentage thus obtained, the concentration of the test compound which inhibits cell growth by 50% (IC50) was determined.

[3] = system: Sarcoma 180 solid tumor; test: Anti-tumor Activity to Sarcoma 180 Solid Tumor; type: in vivo; settings: Mus musculus, iv, 168 h; male ddY mice, s.c. Sarcoma 180, single i.v. injection 24 hours after implantation, tumor volume at 7 days; read-out: ED50 (dose showing T/C=0.5)
Experimental: Anti-tumor Activity to Sarcoma 180 Solid Tumor
5×10^6 Sarcoma 180 cells were abdominally implanted into a ddY mouse and the cells were collected from the ascites of the mouse 7 days after the implantation. The cells were washed once with a sterilized physiological saline solution and then suspended in a sterilized physiological saline solution to prepare a cell suspension of 5×10^7 cells/ml. 0.1 ml of the cell suspension was subcutaneously implanted into the right axiallary space of male ddY mice weighting 20±2 g.
A test compound was dissolved in a physiological saline solution or a Tween 80-containing physiological saline solution, and 0.1 to 0.2 ml of the solution was intravenously injected to five mice as one group 24 hours after the implatation of the tumor cells.
The anti-tumor activity of the test compound was determined by measuring the major diameter (a) and the minor diameter (b) of the tumor 7 days after the implantation of tumor cells, and the value of (a×b^2 /2), which corresponds to the volume of the tumor, was calculated. The intended anti-tumor activity is represented by a ratio of T/C, in which C indicates the tumor volume of mice of the control group to which no test compound was administered and T indicates the tumor volume of mice of the test group to which the test compound was administered. T/C at each dose given was plotted in a graph in which T/C is shown by an ordinary scale on the vertical axis and a dose is shown by a logarithmic scale on the horizontal axis. The relation between the dose and T/C was determined to be a straight line by the least-squares method. From the regression formula of the straight line thus obtained, the dose of showing T/C=0.5 is calculated to give ED50.

SMILES	LD50 at 336 h [1]	IC50 [2]	ED50 [3]
COC1=CC(=O)C2=C(C1=O)[C@@H](COC(N)=O)[C@@]1(OC)[C@H]3N[C@H]3CN21 [Compound 1, 6-demethylmitomycin A]	2.8 mg/kg	210 nM	1.6 mg/kg
COC1=CC(=O)C2=C(C1=O)[C@H](COC(N)=O)[C@@]1(O)[C@@H]3[C@H](CN21)N3C (stereo partly shown) [Compound 2, 6-demethylmitomycin B]	> 20 mg/kg	> 10000 nM	11 mg/kg
CO[C@@]12[C@H](COC(N)=O)C3=C(C(=O)C=C(N)C3=O)N1C[C@@H]1N[C@@H]12 [Compound 3, 6-demethylmitomycin C]	9.7 mg/kg	2200 nM	2.6 mg/kg
CN1[C@H]2[C@@H]1CN1C3=C(C(=O)C(N)=CC3=O)[C@H](COC(N)=O)[C@@]21O (stereo partly shown) [Compound 4, 6-demethylmitomycin D]	> 100 mg/kg	> 31000 nM	33 mg/kg
COC1=CC(=O)C2=C(C1=O)[C@@H](COC(N)=O)[C@@]1(OC)[C@@H]3[C@H](CN21)N3C (stereo partly shown) [Compound 5, 6-demethylmitomycin F]	26 mg/kg	130 nM	7.1 mg/kg
CO[C@@]12[C@H](COC(N)=O)C3=C(C(=O)C=C(N)C3=O)N1C[C@H]1[C@@H]2N1C (stereo partly shown) [Compound 6, 6-demethylporfiromycin]	18 mg/kg	7300 nM	8.4 mg/kg
CO[C@@]12[C@H](COC(N)=O)C3=C(C(=O)C(Cl)=C(N)C3=O)N1C[C@@H]1N[C@@H]12 [Compound 7, 6-chloro-6-demethylmitomycin C]		550 nM	
CO[C@@]12[C@H](COC(N)=O)C3=C(C(=O)C(Br)=C(N)C3=O)N1C[C@@H]1N[C@@H]12 [Compound 8, 6-bromo-6-demethylmitomycin C]	3.2 mg/kg	720 nM	1.6 mg/kg
